# Values of other authors in PubChem BioAssay AID1259409 (Chemical Carcinogenesis Research Information System (CCRIS), 2018).
# Tested on: rodent chemically induced tumor inhibition, incidence and multiplicity
# Assay: CCRIS tumor inhibitor studies
# Settings: Promoter: NONE USED
structure (smiles),measurement,setting,value
CCCCCCCCCCCCCCCC(=O)OC/C=C(C)/C=C/C=C(C)/C=C/C1=C(C)CCCC1(C)C,"tumour outcome (control, treated, inhibition, significance)","Carcinogen: 3-METHYLCHOLANTHRENE, 56-49-5, Dose [Inhibitor]: 6 MG IN 0.1 ML ACETONE STARTING 2 WK AFTER CARCINOGEN TREATMENT AND APPLIED 2/WK DURING WK 3-5 OF THE STUDY AND THEN 1/W, Route [Inhibitor]: DERMAL, Species: MOUSE, Strain/Sex: SWISS/FEMALE, Target Tissue: Type of Lesion: SKIN: CARCINOMA, Dose [Carcinogen]: 0.1 ML OF 0.3% DISSOLVED IN ACETONE APPLIED 2/WK FIRST 5 WK THEN 1/WK FOR WK 6-9 FOLLOWED BY NO FURTHER TREATMENT THROUG","5/19 (26%), 4/20 (20%), 23%, not calculated"
same,"tumour outcome (control, treated, inhibition, significance)","Carcinogen: 3-METHYLCHOLANTHRENE, 56-49-5, Dose [Inhibitor]: 6 MG IN 0.1 ML ACETONE STARTING 2 WK AFTER CARCINOGEN TREATMENT AND APPLIED 2/WK DURING WK 3-5 OF THE STUDY AND THEN 1/W, Route [Inhibitor]: DERMAL, Species: MOUSE, Strain/Sex: SWISS/FEMALE, Target Tissue: Type of Lesion: SKIN: PAPILLOMA, Dose [Carcinogen]: 0.1 ML OF 0.3% DISSOLVED IN ACETONE APPLIED 2/WK FIRST 5 WK THEN 1/WK FOR WK 6-9 FOLLOWED BY NO FURTHER TREATMENT THROUG","9/19 (47%), 3/20 (15%), 68%, not calculated"
same,"tumour outcome (control, treated, inhibition, significance)","Carcinogen: 7,12-DIMETHYLBENZ[A]ANTHRACENE, 57-97-6, Dose [Inhibitor]: 0, 5000 IU APPLIED TO EACH CHEEK POUCH 2/WK BEGINNING 15 D POST LAST CARCINOGEN DOSE AND CONTINUING FOR 4.5 MO (STUDY DU, Route [Inhibitor]: DERMAL, Species: HAMSTER, Strain/Sex: SYRIAN/MALE, Target Tissue: Type of Lesion: CHEEK POUCH: TUMOR, Dose [Carcinogen]: 0.125 MG (0.25% LIQUID PARAFFIN SOLUTION) APPLIED TO EACH CHEEK POUCH 2/WK FOR 1 MO","10/15 (67%), 0/20 (0%), 100%, not calculated"
same,"tumour outcome (control, treated, inhibition, significance)","Carcinogen: 7,12-DIMETHYLBENZ[A]ANTHRACENE, 57-97-6, Dose [Inhibitor]: 0, 5000 IU APPLIED TO EACH CHEEK POUCH 2/WK BEGINNING 15 D POST LAST CARCINOGEN DOSE AND CONTINUING FOR 4.5 MO (STUDY DU, Route [Inhibitor]: DERMAL, Species: HAMSTER, Strain/Sex: SYRIAN/MALE, Target Tissue: Type of Lesion: STOMACH: TUMOR, Dose [Carcinogen]: 0.125 MG (0.25% LIQUID PARAFFIN SOLUTION) APPLIED TO EACH CHEEK POUCH 2/WK FOR 1 MO","15/15 (100%), 0/20 (0%), 100%, not calculated"
same,"tumour outcome (control, treated, inhibition, significance)","Carcinogen: 7,12-DIMETHYLBENZ[A]ANTHRACENE, 57-97-6, Dose [Inhibitor]: 20000 IU/KG IN DIET BEGINNING 6 WK PRIOR TO CARCINOGEN DOSE AND CONTINUING FOR 21-22 WK POST CARCINOGEN DOSE (STUDY DURA, Route [Inhibitor]: ORAL, Species: RAT, Strain/Sex: SPRAGUE-DAWLEY/MALE, Target Tissue: Type of Lesion: SALIVARY GLAND: TUMOR, Dose [Carcinogen]: 1 MG IN 20 µL OLIVE OIL INJECTED INTO SUBMANDIBULAR GLAND ONCE","20/28 (71%), 16/29 (55%), 23%, not significant"
same,"tumour outcome (control, treated, inhibition, significance)","Carcinogen: 7,12-DIMETHYLBENZ[A]ANTHRACENE, 57-97-6, Dose [Inhibitor]: 100000 IU/KG IN DIET BEGINNING 6 WK PRIOR TO CARCINOGEN DOSE AND CONTINUING FOR 21-22 WK POST CARCINOGEN DOSE (STUDY DUR, Route [Inhibitor]: ORAL, Species: RAT, Strain/Sex: SPRAGUE-DAWLEY/MALE, Target Tissue: Type of Lesion: SALIVARY GLAND: TUMOR, Dose [Carcinogen]: 1 MG IN 20 µL OLIVE OIL INJECTED INTO SUBMANDIBULAR GLAND ONCE","20/28 (71%), 17/29 (59%), 17%, not significant"
same,"tumour outcome (control, treated, inhibition, significance)","Carcinogen: BENZO[A]PYRENE, 50-32-8, Dose [Inhibitor]: 50, 200 IU/D IN DRINKING WATER FOR 61 WK BEGINNING POST CARCINOGEN TREATMENT (STUDY DURATION: 66 WK), Route [Inhibitor]: ORAL, Species: MOUSE, Strain/Sex: ICR/MALE, Target Tissue: Type of Lesion: FORESTOMACH: CARCINOMA, Dose [Carcinogen]: 20 MG IN 0.2 ML CORN OIL 2/WK FOR 5 WK","8/28 (29%), 5/26 (19%), 34%, not significant"
same,"tumour outcome (control, treated, inhibition, significance)","Carcinogen: BENZO[A]PYRENE, 50-32-8, Dose [Inhibitor]: 50, 200 IU/D IN DRINKING WATER FOR 61 WK BEGINNING POST CARCINOGEN TREATMENT (STUDY DURATION: 66 WK), Route [Inhibitor]: ORAL, Species: MOUSE, Strain/Sex: ICR/MALE, Target Tissue: Type of Lesion: FORESTOMACH: PAPILLOMA, Dose [Carcinogen]: 2 MG IN 0.2 ML CORN OIL 2/WK FOR 5 WK","8/28 (29%), 2/27 (7%), 76%, p<0.05"
same,"tumour outcome (control, treated, inhibition, significance)","Carcinogen: BENZO[A]PYRENE, 50-32-8, Dose [Inhibitor]: 50, 200 IU/D IN DRINKING WATER FOR 61 WK BEGINNING POST CARCINOGEN TREATMENT (STUDY DURATION: 66 WK), Route [Inhibitor]: ORAL, Species: MOUSE, Strain/Sex: ORAL, Target Tissue: Type of Lesion: FORESTOMACH: PAPILLOMA, Dose [Carcinogen]: 20 MG IN O.2 ML CORN OIL 2/WK FOR 5 WK","26/28 (93%), 23/26 (88%), 5%, not significant"
same,"tumour outcome (control, treated, inhibition, significance)","Carcinogen: BENZO[A]PYRENE, 50-32-8, Dose [Inhibitor]: 50, 200 IU/D IN DRINKING WATER FOR DURATION OF STUDY (STUDY DURATION: 66 WK), Route [Inhibitor]: ORAL, Species: MOUSE, Strain/Sex: ICR/MALE, Target Tissue: Type of Lesion: FORESTOMACH: PAPILLOMA, Dose [Carcinogen]: 2 MG IN 0.2 ML CORN OIL 2/WK FOR 5 WK","8/28 (29%), 2/27 (7%), 76%, p,0.05"
same,"tumour outcome (control, treated, inhibition, significance)","Carcinogen: BENZO[A]PYRENE, 50-32-8, Dose [Inhibitor]: 50, 200 IU/D IN DRINKING WATER FOR THE DURATION OF STUDY (STUDY DURATION: 66 WK), Route [Inhibitor]: ORAL, Species: MOUSE, Strain/Sex: ICR/MALE, Target Tissue: Type of Lesion: FORESTOMACH: CARCINOMA, Dose [Carcinogen]: 20 MG IN 0.2 ML CORN OIL 2/WK FOR 5 WK","8/28 (29%), 7/27 (26%), 10%, not significant"
same,"tumour outcome (control, treated, inhibition, significance)","Carcinogen: BENZO[A]PYRENE, 50-32-8, Dose [Inhibitor]: 50, 200 IU/D IN DRINKING WATER FOR THE DURATION OF STUDY (STUDY DURATION: 66 WK), Route [Inhibitor]: ORAL, Species: MOUSE, Strain/Sex: ICR/MALE, Target Tissue: Type of Lesion: FORESTOMACH: PAPILLOMA, Dose [Carcinogen]: 20 MG IN 0.2 ML CORN OIL 2/WK FOR 5 WK","26/28 (93%), 20/27 (74%), 19%, not significant"
same,"tumour outcome (control, treated, inhibition, significance)","Carcinogen: FIBERGLASS DUST, Dose [Inhibitor]: 50 MG/KG BW IN AQUASOL A PLACEBO, 1/3 D FOR 10 TREATMENTS STARTING 3 D POST CARCINOGEN TREATMENT (STUDY DURATION: 90 D), Route [Inhibitor]: INTRAPERITONEAL, Species: MOUSE, Strain/Sex: STRAIN-A/MALE, Target Tissue: Type of Lesion: LUNG: BRONCHIOGENIC OR SEPTAL CELL TUMOR, Dose [Carcinogen]: 300 MG IN 100 G OF STERILIZED PINE SAWDUST BEDDING CHANGED 1/3 D FOR 30 D STARTING 33 D PRIOR TO START OF AGENT TREATMEN","6/12 (50%), 1/12 (8%), 84%, not calculated"
same,"tumour outcome (control, treated, inhibition, significance)","Carcinogen: N-METHYL-N'-NITRO-N-NITROSOGUANIDINE, 70-25-7, Dose [Inhibitor]: 0, 150000 IU/KG DIET FOR 37 WK (STUDY DURATION: 38 WK), Route [Inhibitor]: ORAL, Species: RAT, Strain/Sex: WISTAR/MALE, Target Tissue: Type of Lesion: FORESTOMACH: BENIGN PAPILLOMA, Dose [Carcinogen]: 83 UG/ML IN DISTILLED DRINKING WATER FOR 37 WK","15/51 (29%), 3/28 (11%), 62%, p<0.05"
same,"tumour outcome (control, treated, inhibition, significance)","Carcinogen: N-METHYL-N'-NITRO-N-NITROSOGUANIDINE, 70-25-7, Dose [Inhibitor]: 0, 150000 IU/KG DIET FOR 37 WK (STUDY DURATION: 38 WK), Route [Inhibitor]: ORAL, Species: RAT, Strain/Sex: WISTAR/MALE, Target Tissue: Type of Lesion: GASTROINTESTINAL TRACT (UPPER): MALIGNANT NEOPLASMS, Dose [Carcinogen]: 83 UG/ML IN DISTILLED DRINKING WATER FOR 37 WK","17/51 (33%), 18/28 (64%), -94%, p<0.05"
same,"tumour outcome (control, treated, inhibition, significance)","Carcinogen: N-METHYL-N-NITROSOUREA, 684-93-5, Dose [Inhibitor]: 0.03 MMOL 3/WK STARTING 12 D THROUGH ABOUT 8 MO AFTER FIRST CARCINOGEN DOSE (STUDY DURATION: APPROXIMATELY 8 MO), Route [Inhibitor]: INTRARECTAL, Species: RAT, Strain/Sex: F344/MALE, Target Tissue: Type of Lesion: COLON: ADENOCARCINOMA, Dose [Carcinogen]: 2.5 MG 1/WK FOR 2 WK","3/39 (8%), 4/39 (10%), -25%, not significant"
same,"tumour outcome (control, treated, inhibition, significance)","Carcinogen: N-METHYL-N-NITROSOUREA, 684-93-5, Dose [Inhibitor]: 0.03 MMOL 3/WK STARTING 12 D THROUGH ABOUT 8 MO AFTER FIRST CARCINOGEN DOSE (STUDY DURATION: APPROXIMATELY 8 MO), Route [Inhibitor]: INTRARECTAL, Species: RAT, Strain/Sex: F344/MALE, Target Tissue: Type of Lesion: COLON: ADENOMA, Dose [Carcinogen]: 2.5 MG 1/WK FOR 2 WK","11/39 (28%), 24/39 (62%), -121%, p<0.05"
same,"tumour outcome (control, treated, inhibition, significance)","Carcinogen: N-METHYL-N-NITROSOUREA, 684-93-5, Dose [Inhibitor]: 0.03 MMOL 3/WK STARTING 15 D PRIOR TO THROUGH ABOUT 8 MO AFTER FIRST CARCINOGEN DOSE (STUDY DURATION: APPROXIMATELY 8 MO, Route [Inhibitor]: INTRARECTAL, Species: RAT, Strain/Sex: F344/MALE, Target Tissue: Type of Lesion: COLON: ADENOCARCINOMA, Dose [Carcinogen]: 2.5 MG 1/WK FOR 2 WK","3/39 (8%), 10/38 (26%), -225%, not significant"
same,"tumour outcome (control, treated, inhibition, significance)","Carcinogen: N-METHYL-N-NITROSOUREA, 684-93-5, Dose [Inhibitor]: 0.03 MMOL 3/WK STARTING 15 D PRIOR TO THROUGH ABOUT 8 MO AFTER FIRST CARCINOGEN DOSE (STUDY DURATION: APPROXIMATELY 8 MO, Route [Inhibitor]: INTRARECTAL, Species: RAT, Strain/Sex: F344/MALE, Target Tissue: Type of Lesion: COLON: ADENOMA, Dose [Carcinogen]: 2.5 MG 1/WK FOR 2 WK","11/39 (28%), 24/38 (63%), -125%, p<0.05"
